The results in this text go back to patent publication US12234230B2, “Substituted benzyl-triazole compounds for Cbl-b inhibition, and further uses thereof” (Nurix Therapeutics, Inc., priority 2019, dated 2025).

The target of one test is Cbl-b (Homo sapiens (Human), UniProt Q13191). Nature of the test: Cbl-b displacement assay (Cbl-b inhibition assay), Biological Example 1. Format: binding. The protocol: The ability of candidate compounds to displace a known inhibitor and thereby inhibit Cbl-b activity was measured by monitoring the interaction of Cbl-b with a fluorophore-labeled probe in the presence of the candidate compound.
Cbl-b, sequence (Q13191 36-427): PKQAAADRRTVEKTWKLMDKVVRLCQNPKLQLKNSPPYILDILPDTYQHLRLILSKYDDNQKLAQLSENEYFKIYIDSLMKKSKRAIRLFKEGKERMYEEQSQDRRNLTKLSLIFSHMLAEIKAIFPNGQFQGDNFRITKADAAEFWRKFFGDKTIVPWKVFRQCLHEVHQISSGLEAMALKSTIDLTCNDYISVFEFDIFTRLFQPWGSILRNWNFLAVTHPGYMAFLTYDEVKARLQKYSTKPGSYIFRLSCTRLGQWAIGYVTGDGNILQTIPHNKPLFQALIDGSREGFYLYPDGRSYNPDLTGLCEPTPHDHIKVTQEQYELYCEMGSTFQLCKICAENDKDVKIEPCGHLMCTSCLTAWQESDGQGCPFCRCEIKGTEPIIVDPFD
Following the one hour incubation, the plates were read for TR-FRET signal at 520/620 nm using an Envision plate reader (Perkin Elmer).

Test [1] concerns primary human total T-cells. Nature of the test: Primary human total T-cell activation (IL-2 secretion, CD25 surface staining), Biological Example 2. As to conditions: fold change over baseline; for CD25 staining CD3/CD28 0.3 μM / IL-2 secretion CD3/CD28 0.3 μM: 0.3 μM inhibitor; for CD25 staining CD3/CD28 0.3 μM / IL-2 secretion CD3/CD28 0.3 μM / CD25 staining CD3/CD28 1 μM / IL-2 secretion CD3/CD28 1 μM: anti-CD3 and anti-CD28 co-stimulation; for CD25 staining CD3/CD28 1 μM / IL-2 secretion CD3/CD28 1 μM / CD25 staining CD3 1 μM / IL-2 secretion CD3 1 μM: 1 μM inhibitor; for CD25 staining CD3 1 μM / IL-2 secretion CD3 1 μM / CD25 staining CD3 3 μM / IL-2 secretion CD3 3 μM: anti-CD3 stimulation alone; for CD25 staining CD3 3 μM / IL-2 secretion CD3 3 μM: 3 μM inhibitor.

Where [2] appears, read: 0.125 nM Cbl-b final concentration (Low), read-out: Cbl-b activity IC50 (Low).
Where [3] appears, read: read-out: IC50 values in the Cbl-b inhibition assay of Biological Example 1.

Read-outs that look alike come from different tables or passages of the source.

For the molecule `C[C@H]1CCCN(Cc2cc3c(c(C4CC4)n2)CN(c2cccc([C@]4(c5nncn5C)C[C@@H](C)C4)c2)C3=O)C1` [Compound 25, 4-cyclopropyl-2-(3-((1s,3R)-3-methyl-1-(4-methyl-4H-1,2,4-triazol-3-yl)cyclobutyl)phenyl)-6-(((S)-3-methylpiperidin-1-yl)methyl)-2,3-dihydro-1H-pyrrolo[3,4-c]pyridin-1-one], at Cbl-b (setting [2]), the IC50 lay in the range of 5 to 20 nM. Also, in test [1], the “CD25 staining CD3/CD28 0.3 μM” value is given as “B (B indicates 1.24-1.39 fold)”, the “IL-2 secretion CD3/CD28 0.3 μM” value is recorded as “C (C indicates <20 fold)”, the “CD25 staining CD3/CD28 1 μM” value was “B (B indicates 1.24-1.39 fold)” and the “IL-2 secretion CD3/CD28 1 μM” value was “C (C indicates <20 fold)”. For the same molecule, in test [1], the “CD25 staining CD3 1 μM” value was “B (B indicates 1.5-2.5 fold)”, the “IL-2 secretion CD3 1 μM” value is recorded as “B (B indicates 0.70-1.1 fold)”, the “CD25 staining CD3 3 μM” value is “B (B indicates 1.5-2.5 fold)” and the “IL-2 secretion CD3 3 μM” value is “B (B indicates 0.70-1.1 fold)”.

Consider `C[C@H]1CCCN(Cc2cc3c(c(C(F)(F)F)c2)CN(c2cccc(C4(c5nncn5C)COC4)c2)C3=O)C1` [Compound 46, 6-[[(3S)-3-methyl-1-piperidyl]methyl]-2-[3-[3-(4-methyl-1,2,4-triazol-3-yl)oxetan-3-yl]phenyl]-4-(trifluoromethyl)isoindolin-1-one], for which, on Cbl-b (setting [2]), the IC50 was under 5 nM. Besides, in test [1], the “CD25 staining CD3/CD28 0.3 μM” value is given as “B (B indicates 1.24-1.39 fold)”, the “IL-2 secretion CD3/CD28 0.3 μM” value is reported as “A (A indicates >35 fold)”, the “CD25 staining CD3/CD28 1 μM” value is reported as “B (B indicates 1.24-1.39 fold)” and the “IL-2 secretion CD3/CD28 1 μM” value is listed as “A (A indicates >35 fold)”. In test [1], the “CD25 staining CD3 1 μM” value was “B (B indicates 1.5-2.5 fold)”, the “IL-2 secretion CD3 1 μM” value is “A (A indicates >1.1 fold)”, the “CD25 staining CD3 3 μM” value is “A (A indicates >2.5 fold)” and the “IL-2 secretion CD3 3 μM” value is “A (A indicates >1.1 fold)”.

Regarding `C[C@@H]1CN(Cc2cc3c(c(C(F)(F)F)c2)CN(c2cccc([C@@H](c4nncn4C)C4CCC4)c2)C3=O)CCC1(F)F` [Compound 2, 2-(3-((S)-cyclobutyl(4-methyl-4H-1,2,4-triazol-3-yl)methyl)phenyl)-6-(((R)-4,4-difluoro-3-methylpiperidin-1-yl)methyl)-4-(trifluoromethyl)isoindolin-1-one], on Cbl-b (setting [2]), the IC50 was over 100 nM. Moreover, the IC50 at Cbl-b (setting [3]) was over 100 nM. In addition, in test [1], the “IL-2 secretion CD3/CD28 0.3 μM” value was “A (A indicates >35 fold)”, the “IL-2 secretion CD3/CD28 1 μM” value is “A (A indicates >35 fold)”, the “CD25 staining CD3 1 μM” value was “A (A indicates >2.5 fold)” and the “IL-2 secretion CD3 1 μM” value was “A (A indicates >1.1 fold)”. Also, in test [1], the “CD25 staining CD3 3 μM” value was “A (A indicates >2.5 fold)” and the “IL-2 secretion CD3 3 μM” value is “B (B indicates 0.70-1.1 fold)”.

As for `C[C@@H]1CN(Cc2cc3c(c(C(F)(F)F)c2)CN(c2cccc(C4(c5nncn5C)CC(F)(F)C4)c2)C3=O)CCO1` [Compound 53, 2-{3-[3,3-difluoro-1-(4-methyl-1,2,4-triazol-3-yl)cyclobutyl]phenyl}-6-{[(2R)-2-methylmorpholin-4-yl]methyl}-4-(trifluoromethyl)-3H-isoindol-1-one], the IC50 on Cbl-b (setting [2]) is under 5 nM. Moreover, in test [1], the “IL-2 secretion CD3/CD28 0.3 μM” value is “A (A indicates >35 fold)”, the “IL-2 secretion CD3/CD28 1 μM” value is on record as “A (A indicates >35 fold)”, the “CD25 staining CD3 1 μM” value is “A (A indicates >2.5 fold)” and the “IL-2 secretion CD3 1 μM” value is reported as “A (A indicates >1.1 fold)”. For the same molecule, in test [1], the “CD25 staining CD3 3 μM” value was “A (A indicates >2.5 fold)” and the “IL-2 secretion CD3 3 μM” value is given as “A (A indicates >1.1 fold)”.

For `C[C@@H]1CN(Cc2cc3c(c(C4CC4)n2)CN(c2cccc([C@]4(c5nncn5C)C[C@@H](C)C4)c2)C3=O)CCO1` [Compound 29, 4-cyclopropyl-2-(3-((1s,3S)-3-methyl-1-(4-methyl-4H-1,2,4-triazol-3-yl)cyclobutyl)phenyl)-6-(((R)-2-methylmorpholino)methyl)-2,3-dihydro-1H-pyrrolo[3,4-c]pyridin-1-one], the IC50 at Cbl-b (setting [2]) was in the range of 5 to 20 nM. Also, in test [1], the “CD25 staining CD3/CD28 0.3 μM” value is on record as “B (B indicates 1.24-1.39 fold)”, the “IL-2 secretion CD3/CD28 0.3 μM” value was “C (C indicates <20 fold)”, the “CD25 staining CD3/CD28 1 μM” value was “B (B indicates 1.24-1.39 fold)” and the “IL-2 secretion CD3/CD28 1 μM” value was “B (B indicates 20-35 fold)”. Moreover, in test [1], the “CD25 staining CD3 1 μM” value was “A (A indicates >2.5 fold)”, the “IL-2 secretion CD3 1 μM” value was “A (A indicates >1.1 fold)”, the “CD25 staining CD3 3 μM” value was “B (B indicates 1.5-2.5 fold)” and the “IL-2 secretion CD3 3 μM” value is “B (B indicates 0.70-1.1 fold)”.

On to `C[C@@H]1CN(Cc2cc3c(c(C(F)(F)F)c2)CN(c2cccc([C@]4(c5nncn5C)C[C@H](C)C4)c2)C3=O)CCC1(F)F` [Compound 20, 6-(((R)-4,4-difluoro-3-methylpiperidin-1-yl)methyl)-2-(3-((1r,3R)-3-methyl-1-(4-methyl-4H-1,2,4-triazol-3-yl)cyclobutyl)phenyl)-4-(trifluoromethyl)isoindolin-1-one], for which the IC50 at Cbl-b (setting [2]) lay in the range of 20 to 100 nM. In test [1], the “CD25 staining CD3/CD28 0.3 μM” value is “B (B indicates 1.24-1.39 fold)”, the “IL-2 secretion CD3/CD28 0.3 μM” value was “C (C indicates <20 fold)”, the “CD25 staining CD3/CD28 1 μM” value is “B (B indicates 1.24-1.39 fold)” and the “IL-2 secretion CD3/CD28 1 μM” value is “C (C indicates <20 fold)”. Further, in test [1], the “CD25 staining CD3 1 μM” value is listed as “A (A indicates >2.5 fold)”, the “IL-2 secretion CD3 1 μM” value is given as “B (B indicates 0.70-1.1 fold)”, the “CD25 staining CD3 3 μM” value is on record as “A (A indicates >2.5 fold)” and the “IL-2 secretion CD3 3 μM” value is “A (A indicates >1.1 fold)”.

For the molecule `C[C@@H]1CN(Cc2cc3c(c(C(F)(F)F)c2)CN(c2cccc([C@@H](c4nncn4C)C4CCC4)c2)C3=O)CCO1` [Compound 15, 2-(3-((S)-cyclobutyl(4-methyl-4H-1,2,4-triazol-3-yl)methyl)phenyl)-6-(((R)-2-methylmorpholino)methyl)-4-(trifluoromethyl)isoindolin-1-one], the IC50 on Cbl-b (setting [2]) is 5 to 20 nM. The IC50 on Cbl-b (setting [3]) was in the range of 5 to 20 nM. In test [1], the “CD25 staining CD3/CD28 0.3 μM” value was “B (B indicates 1.24-1.39 fold)”, the “IL-2 secretion CD3/CD28 0.3 μM” value is “C (C indicates <20 fold)”, the “CD25 staining CD3/CD28 1 μM” value is listed as “B (B indicates 1.24-1.39 fold)” and the “IL-2 secretion CD3/CD28 1 μM” value is on record as “C (C indicates <20 fold)”. In test [1], the “CD25 staining CD3 1 μM” value was “C (C indicates <1.5 fold)”, the “IL-2 secretion CD3 1 μM” value is recorded as “C (C indicates <0.70 fold)”, the “CD25 staining CD3 3 μM” value was “C (C indicates <1.5 fold)” and the “IL-2 secretion CD3 3 μM” value is on record as “C (C indicates <0.70 fold)”.

As usually defined, the IC50 is the concentration needed to halve the response being measured.
